In the NIST ThermoML archive (doi:10.1016/j.fluid.2006.09.007):
Numbers after ± are expanded uncertainties.

Settings: Liquid, Ebulliometric method (Recirculating still)

Row | Structure (SMILES) | vapor or sublimation pressure (314 K) [kPa] | vapor or sublimation pressure (317 K) [kPa] | vapor or sublimation pressure (320 K) [kPa] | vapor or sublimation pressure (323 K) [kPa] | vapor or sublimation pressure (326 K) [kPa] | vapor or sublimation pressure (329 K) [kPa] | vapor or sublimation pressure (332 K) [kPa] | vapor or sublimation pressure (335 K) [kPa] | vapor or sublimation pressure (338 K) [kPa] | vapor or sublimation pressure (315 K) [kPa] | vapor or sublimation pressure (318 K) [kPa] | vapor or sublimation pressure (321 K) [kPa] | vapor or sublimation pressure (324 K) [kPa] | vapor or sublimation pressure (327 K) [kPa] | vapor or sublimation pressure (330 K) [kPa] | vapor or sublimation pressure (333 K) [kPa] | vapor or sublimation pressure (336 K) [kPa] | vapor or sublimation pressure (339 K) [kPa] | vapor or sublimation pressure (342 K) [kPa] | vapor or sublimation pressure (345 K) [kPa]
1 | CC(C)=O [acetone] | 57.96 ± 0.47 | 64.95 ± 0.49 | 72.6 ± 0.54 | 80.96 ± 0.58 | 90.08 ± 0.64 | 100 ± 0.69 | 110.78 ± 0.75 | 122.47 ± 0.81 | 135.11 ± 0.85 | – | – | – | – | – | – | – | – | – | – | –
2 | CO [methanol] | – | – | – | – | – | – | – | – | – | 38.33 ± 0.38 | 43.97 ± 0.4 | 50.29 ± 0.45 | 57.36 ± 0.5 | 65.25 ± 0.56 | 74.02 ± 0.62 | 83.76 ± 0.68 | 94.55 ± 0.76 | 106.47 ± 0.84 | 119.61 ± 0.92 | 134.07 ± 0.96
